Structures can show the parent of a compound that is named as a salt.

In the assay the test system is Acinetobacter baumannii ATCC17961. As to the kind of experiment: Antimicrobial susceptibility testing: 90% growth inhibitory concentration (IC90) determination, Iso-Sensitest broth. Type of assay: cell-based. Conditions: Acinetobacter baumannii, ATCC17961, 90% growth inhibitory concentration, Acinetobacter baumannii ATCC17961, Iso-Sensitest broth; read-out: ATCC 17961 IC90. The essentials:
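Twofold serial dilutions (e.g. 10 to 0.02 μM final) were tested in Iso-Sensitest broth against ~5×10^(5) CFU/ml at 35±2 °C. OD600 was read every 20 min over 16 h. IC90 was derived from growth inhibition during the logarithmic phase.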
A word on the IC90: it is the concentration at which the effect reaches the 90% level. With `COc1ccc(-c2cnc(C(=O)Nc3ccc(C(=O)N4CCN(C(=O)[C@H]5CCNC5)CC4)c(Cl)c3)n2C)c(F)c1F` [Example 139, N-[3-chloro-4-[4-[(3S)-pyrrolidine-3-carbonyl]piperazine-1-carbonyl]phenyl]-5-(2,3-difluoro-4-methoxy-phenyl)-1-methyl-imidazole-2-carboxamide formate], the IC90 is 40 nM.

Take `COc1ccc(-c2cnc(C(=O)Nc3ccc(C(=O)N4CCN(C(=O)[C@H]5C[C@@H](N)C5)CC4)c(Cl)c3)n2C)c(F)c1F` [Example 140, N-[4-[4-(3-aminocyclobutanecarbonyl)piperazine-1-carbonyl]-3-chloro-phenyl]-5-(2,3-difluoro-4-methoxy-phenyl)-1-methyl-imidazole-2-carboxamide formate]: the IC90 was determined as 50 nM.

As for `COc1ccc(-c2cnc(C(=O)Nc3ccc(C(=O)N4CCN(C(=O)C5(O)CCNC5)CC4)c(Cl)c3)n2C)c(F)c1F` (stereo not drawn) [Example 141, N-[3-chloro-4-[4-(3-hydroxypyrrolidine-3-carbonyl)piperazine-1-carbonyl]phenyl]-5-(2,3-difluoro-4-methoxy-phenyl)-1-methyl-imidazole-2-carboxamide formate], the IC90 worked out at 60 nM.

As for `COc1ccc(-c2cnc(C(=O)Nc3ccc(C(=O)N4CCN(C(=O)CC5CCNCC5)CC4)c(Cl)c3)n2C)c(F)c1F` [Example 142, N-[3-chloro-4-[4-[2-(4-piperidyl)acetyl]piperazine-1-carbonyl]phenyl]-5-(2,3-difluoro-4-methoxy-phenyl)-1-methyl-imidazole-2-carboxamide; formic acid], the IC90 came out at 40 nM.

Consider `Cn1c(-c2ccc(OCF)c(F)c2F)cnc1C(=O)Nc1ccc(C(=O)N2CCN(C(=O)C3CCNCC3)CC2)c(Cl)c1` [Example 143, N-[3-chloro-4-[4-(piperidine-4-carbonyl)piperazine-1-carbonyl]phenyl]-5-[2,3-difluoro-4-(fluoromethoxy)phenyl]-1-methyl-imidazole-2-carboxamide formate], for which the IC90 came out at 30 nM.

Turning to `Cn1c(-c2ccc(OC(F)F)c(F)c2)cnc1C(=O)Nc1ccc(C(=O)N2CCN(C(=O)C3CCNCC3)CC2)c(Cl)c1` [Example 144, N-[3-chloro-4-[4-(piperidine-4-carbonyl)piperazine-1-carbonyl]phenyl]-5-[4-(difluoromethoxy)-3-fluoro-phenyl]-1-methyl-imidazole-2-carboxamide formate], the IC90 came out at 60 nM.

With `COc1ccc(-c2cnc(C(=O)Nc3ccc(C(=O)N4CCN(C(=O)CC5CNC5)CC4)c(Cl)c3)n2C)c(F)c1F` [Example 145, N-[4-[4-[2-(azetidin-3-yl)acetyl]piperazine-1-carbonyl]-3-chloro-phenyl]-5-(2,3-difluoro-4-methoxy-phenyl)-1-methyl-imidazole-2-carboxamide formate], the IC90 is 40 nM.

As for `Cn1c(-c2ccc(OCF)c(F)c2Cl)cnc1C(=O)Nc1ccc(C(=O)N2CCN(C(=O)C[C@@H]3CCNC3)CC2)c(Cl)c1` [Example 146, 5-[2-chloro-3-fluoro-4-(fluoromethoxy)phenyl]-N-[3-chloro-4-[4-[2-[(3S)-pyrrolidin-3-yl]acetyl]piperazine-1-carbonyl]phenyl]-1-methyl-imidazole-2-carboxamide formate], the IC90 was 40 nM.

In the case of `Cn1c(-c2ccc(OC(F)F)c(F)c2Cl)cnc1C(=O)Nc1ccc(C(=O)N2CCN(C(=O)C[C@@H]3CCNC3)CC2)c(Cl)c1` [Example 147, 5-[2-chloro-4-(difluoromethoxy)-3-fluoro-phenyl]-N-[3-chloro-4-[4-[2-[(3S)-pyrrolidin-3-yl]acetyl]piperazine-1-carbonyl]phenyl]-1-methyl-imidazole-2-carboxamide formate], the IC90 came out at 40 nM.

With `Cn1c(-c2ccc(OCF)c(F)c2F)cnc1C(=O)Nc1ccc(C(=O)N2CCN(C(=O)C3CNCC3O)CC2)c(Cl)c1` (stereo not drawn) [Example 148, N-[3-chloro-4-[4-(4-hydroxypyrrolidine-3-carbonyl)piperazine-1-carbonyl]phenyl]-5-[2,3-difluoro-4-(fluoromethoxy)phenyl]-1-methyl-imidazole-2-carboxamide formate], the concentration for an effect of 90% (IC90) was determined as 40 nM.

Take `COc1ccc(-c2cnc(C(=O)Nc3ccc(C(=O)N4CCN(C(=O)CN)CC4)c(Cl)c3)n2C)c(F)c1F` [Example 149, N-[4-[4-(2-aminoacetyl)piperazine-1-carbonyl]-3-chloro-phenyl]-5-(2,3-difluoro-4 methoxy-phenyl)-1-methyl-imidazole-2-carboxamide formate]: the IC90 was 30 nM.

Regarding `COc1ccc(-c2cnc(C(=O)Nc3ccc(C(=O)N4CCN(C(=O)[C@@H]5CCN5)CC4)c(Cl)c3)n2C)c(F)c1F` [Example 150, N-[4-[4-[(2S)-azetidine-2-carbonyl]piperazine-1-carbonyl]-3-chloro-phenyl]-5-(2,3-difluoro-4-methoxy-phenyl)-1-methyl-imidazole-2-carboxamide formate], the IC90 was determined as 80 nM.

Consider `COc1ccc(-c2cnc(C(=O)Nc3ccc(C(=O)N4CCN(C(=O)CC5CCNC5)CC4)c(Cl)c3)n2C)c(F)c1F` (stereo not drawn) [Example 151, N-[3-chloro-4-[4-(2-pyrrolidin-3-ylacetyl)piperazine-1-carbonyl]phenyl]-5-(2,3-difluoro-4-methoxy-phenyl)-1-methyl-imidazole-2-carboxamide formate], for which the IC90 came to 40 nM.

Take `COc1ccc(-c2cnc(C(=O)Nc3ccc(C(=O)N4CCN(C(=O)C[C@H]5CCCN5)CC4)c(Cl)c3)n2C)c(F)c1F` [Example 152, N-[3-chloro-4-[4-[2-[(2R)-pyrrolidin-2-yl]acetyl]piperazine-1-carbonyl]phenyl]-5-(2,3-difluoro-4-methoxy-phenyl)-1-methyl-imidazole-2-carboxamide formate]: the IC90 came out at 50 nM.

In the case of `COc1ccc(-c2cnc(C(=O)Nc3ccc(C(=O)N4CCN(C(=O)C[C@H]5CCNC5)CC4)c(Cl)c3)n2C)c(F)c1F` [Example 153, N-[3-chloro-4-[4-[2-[(3R)-pyrrolidin-3-yl]acetyl]piperazine-1-carbonyl]phenyl]-5-(2,3-difluoro-4-methoxy-phenyl)-1-methyl-imidazole-2-carboxamide formate], the IC90 was 60 nM.

Turning to `COc1ccc(-c2cnc(C(=O)Nc3ccc(C(=O)N4CCN(C(=O)C[C@@H]5CCCN5)CC4)c(Cl)c3)n2C)c(F)c1F` [Example 154, N-[3-chloro-4-[4-[2-[(2S)-pyrrolidin-2-yl]acetyl]piperazine-1-carbonyl]phenyl]-5-(2,3-difluoro-4-methoxy-phenyl)-1-methyl-imidazole-2-carboxamide formate], the IC90 came to 70 nM.

With `Cn1c(-c2ccc(OCF)c(F)c2F)cnc1C(=O)Nc1ccc(C(=O)N2CCN(C(=O)[C@@H]3CCNC3)CC2)c(Cl)c1` [Example 155, N-[3-chloro-4-[4-[(3R)-pyrrolidine-3-carbonyl]piperazine-1-carbonyl]phenyl]-5-[2,3-difluoro-4-(fluoromethoxy)phenyl]-1-methyl-imidazole-2-carboxamide formate], the IC90 worked out at 40 nM.

In the case of `CN(C)CC(=O)N1CCN(C(=O)c2ccc(NC(=O)c3ncc(-c4ccc(OC(F)F)c(F)c4F)n3C)cc2Cl)CC1` [Example 156, N-[3-chloro-4-[4-[2-(dimethylamino)acetyl]piperazine-1-carbonyl]phenyl]-5-[4-(difluoromethoxy)-2,3-difluoro-phenyl]-1-methyl-imidazole-2-carboxamide formate], the concentration for an effect of 90% (IC90) stood at 30 nM.

As for `Cn1c(-c2ccc(OCF)c(F)c2F)cnc1C(=O)Nc1ccc(C(=O)N2CCN(C(=O)C[C@@H]3CCCN3)CC2)c(Cl)c1` [Example 157, N-[3-chloro-4-[4-[2-[(2S)-pyrrolidin-2-yl]acetyl]piperazine-1-carbonyl]phenyl]-5-[2,3-difluoro-4-(fluoromethoxy)phenyl]-1-methyl-imidazole-2-carboxamide formate], the IC90 was determined as 30 nM.

`Cn1c(-c2ccc(OCF)c(F)c2F)cnc1C(=O)Nc1ccc(C(=O)N2CCN(C(=O)C[C@@H]3CCNC3)CC2)c(Cl)c1` [Example 158, N-[3-chloro-4-[4-[2-[(3S)-pyrrolidin-3-yl]acetyl]piperazine-1-carbonyl]phenyl]-5-[2,3-difluoro-4-(fluoromethoxy)phenyl]-1-methyl-imidazole-2-carboxamide formate]: the IC90 was determined as 40 nM.

Regarding `Cn1c(-c2ccc(OC(F)F)cc2F)cnc1C(=O)Nc1ccc(C(=O)N2CCN(C(=O)C[C@@H]3CCCN3)CC2)c(Cl)c1` [Example 159, N-[3-chloro-4-[4-[2-[(2S)-pyrrolidin-2-yl]acetyl]piperazine-1-carbonyl]phenyl]-5-[4-(difluoromethoxy)-2-fluoro-phenyl]-1-methyl-imidazole-2-carboxamide formate], the 90% effect concentration (IC90) amounted to 70 nM.

For the molecule `Cn1c(-c2ccc(OCF)c(F)c2F)cnc1C(=O)Nc1ccc(C(=O)N2CCN(C(=O)CC3(O)CNC3)CC2)c(Cl)c1` [Example 160, N-[3-chloro-4-[4-[2-(3-hydroxyazetidin-3-yl)acetyl]piperazine-1-carbonyl]phenyl]-5-[2,3-difluoro-4-(fluoromethoxy)phenyl]-1-methyl-imidazole-2-carboxamide formate], the IC90 is 40 nM.

Turning to `COc1ccc(-c2cnc(C(=O)Nc3ccc(C(=O)N4CCN(C(=O)CC5(O)CCNCC5)CC4)c(Cl)c3)n2C)c(F)c1F` [Example 161, N-[3-chloro-4-[4-[2-(4-hydroxy-4-piperidyl)acetyl]piperazine-1-carbonyl]phenyl]-5-(2,3-difluoro-4-methoxy-phenyl)-1-methyl-imidazole-2-carboxamide formate], the IC90 is 30 nM.

Turning to `Cn1c(-c2ccc(OCF)c(F)c2F)cnc1C(=O)Nc1ccc(C(=O)N2CCN(C(=O)C3(O)CCNCC3)CC2)c(Cl)c1` [Example 162, N-[3-chloro-4-[4-(4-hydroxypiperidine-4-carbonyl)piperazine-1-carbonyl]phenyl]-5-[2,3-difluoro-4-(fluoromethoxy)phenyl]-1-methyl-imidazole-2-carboxamide formate], the IC90 turned out to be 30 nM.

Source of the values: patent US20220396565A1 (Hoffmann-La Roche Inc., priority 2020, published 2022).
